From patent publication US7459532B2, “Variants of the TRP channel family member, LTRPC3G” (Bristol-Myers Squibb Company, priority 2003, dated 2008)
Entries after “also recorded” stand apart in the source; their conditions may differ.

Experiments:
LTRPC3 = biological target: T1, LTRPC3 (Homo sapiens, UniProt Q9HCF6, R1695Q); experiment: FLIPR Fluo-4 Ca^2+ entry in LTRPC3-transfected HEK 293 cells; type: cell-based; details: for block of LTRPC3 Ca^2+ conductance/currents (in words): 1 mM Ca^2+ solution, addition of 10 mM Ca^2+; for block of LTRPC3 Ca^2+ currents: pre-treatment with 100 μM, stimulated by adding 10 mM Ca^2+
T1 construct: the complete open reading frame of LTRPC3 with a C-terminal HA tag was transiently transfected into HEK 293 cells; expressed in transfected cells; host or cells: HEK 293 (transient transfection, vector pcDNA3.1/Hygro-LTRPC3-HA)
T1 sequence (Q9HCF6 with tags, fused parts or gaps isoform Q9HCF6-2 R1670Q): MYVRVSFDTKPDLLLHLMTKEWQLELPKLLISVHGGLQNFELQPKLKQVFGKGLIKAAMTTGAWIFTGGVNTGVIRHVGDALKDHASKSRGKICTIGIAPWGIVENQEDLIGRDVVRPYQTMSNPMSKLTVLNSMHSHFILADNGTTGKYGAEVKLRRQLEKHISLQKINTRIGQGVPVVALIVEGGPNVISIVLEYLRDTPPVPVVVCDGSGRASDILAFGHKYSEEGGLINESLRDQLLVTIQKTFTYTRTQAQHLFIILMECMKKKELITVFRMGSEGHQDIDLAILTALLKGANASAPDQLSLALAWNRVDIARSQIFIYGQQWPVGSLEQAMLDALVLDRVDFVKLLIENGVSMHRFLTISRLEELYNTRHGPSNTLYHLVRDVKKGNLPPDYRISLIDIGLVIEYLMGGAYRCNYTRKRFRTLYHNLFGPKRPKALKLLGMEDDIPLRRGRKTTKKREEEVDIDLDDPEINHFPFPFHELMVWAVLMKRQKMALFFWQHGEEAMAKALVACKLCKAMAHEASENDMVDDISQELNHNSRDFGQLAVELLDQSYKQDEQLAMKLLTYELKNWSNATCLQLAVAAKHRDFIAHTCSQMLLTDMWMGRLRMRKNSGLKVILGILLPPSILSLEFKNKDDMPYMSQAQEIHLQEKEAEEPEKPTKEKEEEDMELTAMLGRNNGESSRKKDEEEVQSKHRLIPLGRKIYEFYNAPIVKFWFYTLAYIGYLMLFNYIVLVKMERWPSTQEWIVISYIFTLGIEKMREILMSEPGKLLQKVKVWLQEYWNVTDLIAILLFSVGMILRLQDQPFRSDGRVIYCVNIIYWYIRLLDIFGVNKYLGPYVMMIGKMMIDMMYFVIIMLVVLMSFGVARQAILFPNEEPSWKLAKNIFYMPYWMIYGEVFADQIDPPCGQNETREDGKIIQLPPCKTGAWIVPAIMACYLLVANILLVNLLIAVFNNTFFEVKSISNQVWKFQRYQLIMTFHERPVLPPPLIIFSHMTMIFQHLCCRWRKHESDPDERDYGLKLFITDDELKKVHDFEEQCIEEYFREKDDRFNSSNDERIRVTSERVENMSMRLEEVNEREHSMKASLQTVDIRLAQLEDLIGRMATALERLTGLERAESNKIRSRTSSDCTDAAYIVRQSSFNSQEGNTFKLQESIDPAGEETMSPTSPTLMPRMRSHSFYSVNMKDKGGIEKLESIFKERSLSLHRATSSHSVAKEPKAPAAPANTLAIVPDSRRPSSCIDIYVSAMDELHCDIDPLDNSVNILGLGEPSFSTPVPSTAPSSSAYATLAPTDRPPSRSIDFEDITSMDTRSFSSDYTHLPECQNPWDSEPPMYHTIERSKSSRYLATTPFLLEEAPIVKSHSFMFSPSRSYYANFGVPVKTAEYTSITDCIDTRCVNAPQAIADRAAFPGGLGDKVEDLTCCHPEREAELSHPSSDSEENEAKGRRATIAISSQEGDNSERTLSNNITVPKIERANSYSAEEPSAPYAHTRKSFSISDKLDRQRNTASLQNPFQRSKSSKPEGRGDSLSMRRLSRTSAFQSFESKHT
Method: (§1) […] (A), or 50 μM carbachol (B) was first added to LTRPC3 variant expressing HEK 293 cells in the absence of external Ca^2+. After 9 minutes, 2 mM Ca^2+ solution was added to the cell medium at the indicated times. Currents for vector transfected HEK 293 cells, and LTRPC3 variant expressing HEK 293 cells are labeled accordingly. […] Cells loaded with Fluo-4 were incubated in 1 mM Ca^2+ solution and treated with 100 μM of La^3+ (“w/La^3+”), Gd^3+ (“w/Gd^3+”) or without blockers (“w/o blocker”) for 10 min prior to the addition of 10 mM Ca^2+ to the cell medium as indicated. Curves represent averages of three independent experiments, each involving at least 8 wells per condition. Physiometric methods were performed as described in Example 7 herein.
(§2) Panels A, C and E show results obtained for vector-transfected cells, while Panels B, D and F show results obtained for TRPM3-transfected cells. […] Cells loaded with Fluo-4 were incubated in 1 mM Ca^2+ solution and treated with 100 μM of Gd^3+ (red) or without blockers (black) for 10 min prior to the addition of 10 mM Ca^2+ to the bath solution as indicated. […] Cells loaded with Fluo-4 were incubated in a nominally Ca^2+-free media and treated without blockers (black) or with 100 μM of Gd^3+ (red) for 10 min prior to the addition of 2 μM TG (Panels C and D, first arrow) or 50 μM CCh (Panels E and F, first arrow), Ca^2+ entry was stimulated by the bath addition of 10 mM Ca^2+ (second arrow). Representative traces from one of three independent experiments are shown; each trace is the mean of 12 wells per condition. Physiometric methods were performed as described in Example 10 herein.
Moreover, physiometric studies have shown that LTRPC3 is a functional Ca^2+ permeable channel (see FIGS. 18 and 19, and Example 7). LTRPC3g function was assessed using a Fluorometric Imaging Plate Reader (FLIPR™) that measures real-time intracellular fluorescence changes. Cells transiently transfected with vector or LTRPC3-HA were loaded with the cytoplasmic Ca^2+ indicator Fluoro-4 in a 1 mM Ca^2+ solution. […] The non-transfected cells were indistinguishable from the vector-transfected cells (data not shown). Therefore, LTRPC3 is a constitutively active channel capable of mediating Ca^2+ influx.
The lanthanides, gadolinium (Gd^3+) and lanthanum (La^3+), are noneselective Ca^2+-permeable channel blockers, often used as part of the characterization of overexpressed TRP channels. […] In the presence of 1 mM Ca^2+ in which endogenous SOCs is minimally activated (FIG. 18A), pre-treatment with 100 μM of La^3+ and Gd^3+ blocked LTRPC3 Ca^2+ currents, stimulated by adding 10 mM Ca^2+, by 67 and 39%, respectively.
Additional experiments were performed to further confirm the Ca^2+ store-depleted activation of LTRPC3 using Gd^3+. The effects of 100 μM Gd^3+ on Ca^2+ permeability were tested in vector- and LTRPC3-transfected cells. […] In contrast, 100 μM Gd^3+ inhibited Ca^2+ entry, induced by adding 10 mM Ca^2+, by 53% in LTRPC3-transfected cells (see FIG. 22B). Gd^3+ reduced fluorescence units in vector-transfected cells from 1470±140 to −58±8 and in LTRPC3-transfected cells from 6000±322 to 2080±199 (n=12). Fluorescence values were measured 150 seconds after adding 10 mM Ca^2+ and percent blockade was calculated as 1 minus FLTRPC3-FVector in the presence of Gd^3+ divided by FLTRPC3-FVector without blocker. The effects of Gd^3+ on LTRPC3-mediated Ca^2+ entry, induced by 10 mM Ca^2+, in the presence of thapsigargin or carbachol was also examined. Cells were incubated in nominally Ca^2+-free medium for thapsigargin and carbachol experiments. Gd^3+ inhibited Ca^2+ entry by 51% after depletion of intracellular stores with thapsigargin (see FIG. 22B). Gd^3+ reduced peak fluorescence after 10 mM Ca^2+ addition in vector-transfected cells from 26444±2410 to 1316±60 and in LTRPC3-transfected cells from 37676±2425 to 6783±250 (see FIGS. 22C and D, respectively; n=12). […]

[1] = test system: endogenous Ca^2+ entry pathways present in HEK 293 cells; experiment: FLIPR Fluo-4 Ca^2+ entry in vector-transfected HEK 293 cells; type: cell-based; details: 100 μM
Method: as §2
To further address the mechanism of LTRPC3-mediated Ca^2+ entry, similar Ca^2+ addition experiments were performed on transfected cells incubated (˜30 min) in a nominally Ca^2+-free solution. Previous studies have shown that lowering extracellular Ca^2+ concentration below physiological levels can deplete intracellular Ca^2+ stores in many cell types including HEK 293 (EMBO J. 17, 4274-4282, (1998)). Incubating vector-transfected HEK 293 cells in a nominally Ca^2+-free solution gave rise to Ca^2+ entry that was dependent on the concentration of Ca^2+ added to the buffers, indicating Ca^2+ influx was mediated through endogenous SOCs in HEK293 cells (FIG. 18, left panels). In LTRPC3 cells, the Ca^2+ transients triggered by similar Ca^2+ treatment were much larger (FIG. 18, right panels).
Additional experiments were performed to further confirm the Ca^2+ store-depleted activation of LTRPC3 using Gd^3+. The effects of 100 μM Gd^3+ on Ca^2+ permeability were tested in vector- and LTRPC3-transfected cells. […] In contrast, 100 μM Gd^3+ inhibited Ca^2+ entry, induced by adding 10 mM Ca^2+, by 53% in LTRPC3-transfected cells (see FIG. 22B). Gd^3+ reduced fluorescence units in vector-transfected cells from 1470±140 to −58±8 and in LTRPC3-transfected cells from 6000±322 to 2080±199 (n=12). Fluorescence values were measured 150 seconds after adding 10 mM Ca^2+ and percent blockade was calculated as 1 minus FLTRPC3-FVector in the presence of Gd^3+ divided by FLTRPC3-FVector without blocker. […] Gd^3+ reduced peak fluorescence after 10 mM Ca^2+ addition in vector-transfected cells from 26444±2410 to 1316±60 and in LTRPC3-transfected cells from 37676±2425 to 6783±250 (see FIGS. 22C and D, respectively; n=12). […] Gd^3+ reduced peak Ca^2+ fluorescence in vector-transfected cells from 9327±466 to 453±15 and in LTRPC3-transfected cells from 14747±988 to 1975±79 (see FIGS. 22E and F, respectively; n=12).

[2] = test system: nigral dopaminergic neurons; details: gel foam implants in the striatum; cited from earlier work
Human lung fibroblasts = experiment: human lung fibroblast growth assay with Alamar Blue; type: cell-based; details: 3 days in basal medium
Method: Human lung fibroblasts are obtained from Clonetics (San Diego, Calif.) and maintained in growth media from Clonetics. Dermal microvascular endothelial cells are obtained from Cell Applications (San Diego, Calif.). For proliferation assays, the human lung fibroblasts and dermal microvascular endothelial cells can be cultured at 5,000 cells/well in a 96-well plate for one day in growth medium. The cells are then incubated for one day in 0.1% BSA basal medium. After replacing the medium with fresh 0.1% BSA medium, the cells are incubated with the test proteins for 3 days. Alamar Blue (Alamar Biosciences, Sacramento, Calif.) is added to each well to a final concentration of 10%. The cells are incubated for 4 hr. Cell viability is measured by reading in a CytoFluor fluorescence reader. For the PGE2 assays, the human lung fibroblasts are cultured at 5,000 cells/well in a 96-well plate for one day. […]

HEK 293 cells = experiment: Ca^2+ store depletion in LTRPC3-HA- and vector-transfected HEK 293 cells; type: cell-based
Method: as §1
The store-operated mechanism of LTRPC3-mediated Ca^2+ influx was tested further by passively depleting Ca^2+ stores with thapsigargin (TG), an inhibitor of microsomal Ca^2+ ATPases that pumps ions from the cytosol back into the stores. […] Following store depletion with TG, addition of Ca^2+ to the buffer induced a much larger Ca^2+ entry in LTRPC3 cells compared to the vector control cells.
Receptor-mediated Ca^2+ entry was also more pronounced in LTRPC3-HA-transfected cells. Carbachol (CCh) can activate an endogenous muscarinic receptor and trigger IP3 production, leading to store-depletion in HEK 293 cells. […]

female recipients = details: picogram quantities to the female vomeronasal organ; cited from earlier work
[3] = 100 μM, nominally Ca^2+-free medium, 10 mM Ca^2+ addition

Question: For [Gd+3] [Gd^3+, gadolinium (Gd^3+)], which “block of LTRPC3 Ca^2+ conductance/currents (in words)” value (LTRPC3; 100 μM for 10 min) is on record?
Answer: The value was “partially inhibited”.

Question: And the “effect on Tg and CCh induced LTRPC3 variant-mediated Ca^2+ entry (in words)” value (LTRPC3; 100 μM for 10 min, nominally Ca^2+-free media, 2 μM TG or 50 μM CCh, 10 mM Ca^2+)?
Answer: Its value is “can be inhibited”.

Question: And the “fluorescence in the presence of blocker, LTRPC3-transfected cells” value (LTRPC3; 100 μM, 1 mM Ca^2+, 150 seconds after adding 10 mM Ca^2+, n=12)?
Answer: The value was 2080±199 fluorescence units.

Question: And the “inhibition of Ca^2+ entry (percent blockade)” value (LTRPC3; 100 μM, cells in 1 mM Ca^2+, induced by adding 10 mM Ca^2+, 150 seconds after addition)?
Answer: Its value is 53%.

Question: And the “inhibition of Ca^2+ entry after depletion of intracellular stores with carbachol” value (LTRPC3; [3])?
Answer: Its value is 72%.

Question: What about the “inhibition of Ca^2+ entry after depletion of intracellular stores with thapsigargin” value (LTRPC3; [3]) of the same compound?
Answer: The value was 51%.

Question: What about the “peak Ca^2+ fluorescence in the presence of blocker after carbachol, LTRPC3-transfected cells” value (LTRPC3; 100 μM, nominally Ca^2+-free medium, 10 mM Ca^2+ addition, n=12) of the same compound?
Answer: The value was 1975±79.

Question: And the “peak fluorescence in the presence of blocker after thapsigargin, LTRPC3-transfected cells” value (LTRPC3; 100 μM, nominally Ca^2+-free medium, after 10 mM Ca^2+ addition, n=12)?
Answer: Its value is 6783±250.

Question: What about the “block of LTRPC3 Ca^2+ currents” value (LTRPC3; 1 mM Ca^2+) of the same compound?
Answer: The value was 39%.

Question: And the “fluorescence in the presence of blocker, vector-transfected cells” value ([1]; 1 mM Ca^2+, 150 seconds after adding 10 mM Ca^2+, n=12)?
Answer: The value was −58±8 fluorescence units.

Question: And the “effect on minimal Ca^2+ influx in vector-transfected cells (in words)” value ([1]; 1 mM Ca^2+, addition of 10 mM Ca^2+)?
Answer: Its value is “strongly inhibited”.

Question: And the “peak Ca^2+ fluorescence in the presence of blocker after carbachol, vector-transfected cells” value ([1]; nominally Ca^2+-free medium, 10 mM Ca^2+ addition, n=12)?
Answer: The value was 453±15.

Question: And the “peak fluorescence in the presence of blocker after thapsigargin, vector-transfected cells” value ([1]; nominally Ca^2+-free medium, after 10 mM Ca^2+ addition, n=12)?
Answer: Its value is 1316±60.

Question: With “FGF-2: FGF-2 (basic FGF), growth factor used as comparator” as the compound, how does the “protection of nigral dopaminergic neurons from the toxicity associated with MPTP exposure” value [2] read?
Answer: Its value is “near complete protection”.

Question: And the “concentration at which stimulation of fibroblast growth should be shown” value (Human lung fibroblasts)?
Answer: Its value is 10 to 2500 ng/mL.

Question: Which “intracellular Ca^2+ response (in words)” value (HEK 293 cells; 50 μM, LTRPC3- and vector-transfected cells) does the source give for C[N+](C)(C)CCOC(N)=O [CCh, Carbachol] here?
Answer: The value was “transient and rapid intracellular Ca^2+ increase”.

Question: With [La+3] [La^3+, lanthanum (La^3+)] as the compound, how does the “block of LTRPC3 Ca^2+ conductance/currents (in words)” value (LTRPC3; 100 μM for 10 min) read?
Answer: Its value is “inhibited; also recorded: more potent”.

Question: And the “block of LTRPC3 Ca^2+ currents” value (LTRPC3; 1 mM Ca^2+)?
Answer: The value was 67%.

Question: Which “depletion of Ca^2+ stores (in words)” value (HEK 293 cells; 2 μM, LTRPC3-HA- and vector-transfected cells) does the source give for C/C=C(/C)C(=O)O[C@H]1C(C)=C2[C@H]([C@@H]1OC(=O)CCCCCCC)[C@@](C)(OC(C)=O)C[C@H](OC(=O)CCC)[C@@]1(O)[C@H]2OC(=O)[C@@]1(C)O [thapsigargin] here?
Answer: Its value is “equivalently depleted Ca^2+ stores”.

Question: With C[C@@]12C=CC[C@H]1[C@@H]1CCC3=CC(=O)CC[C@]3(C)[C@H]1CC2 [androstadienone] as the compound, how does the “nervousness, tension and other negative feelings” value (female recipients) read?
Answer: The value was “significant reduction”.
